These results are taken from patent US20050004037A1, “Osteogenic growth oligopeptides as stimulants of hematopoiesis” (Yissum Research Development Company of the Hebrew …, priority 2001, published 2005).

Data set [1] can be described thus: Evaluation of OGP(10-14) toxicity after 15 days of subcutaneous administration. The conditions noted are these: 10 nmol/mouse s.c., versus placebo-treated controls. The data set is classed as in vivo, mice. How it is done:
Fifty-five mice were evaluated for possible OGP(10-14)-related toxicity after 15 days of subcutaneous administration, at the dose of 10 nmol/mouse, and results were compared to those obtained in 30 placebo-treated controls.

Data set [2] has as its system white blood cells, monocytes, immature cells. Nature of the data set: Total and differential blood cell counts after cyclophosphamide (CFA) chemoablation. Type of data set: in vivo, mice. The conditions noted are these: CFA-induced aplasia. How it is done:
FIGS. 2A-C—OGP(10-14) stimulates blood cell counts in dose and time dependent manner in mice undergoing chemoablation of hematopoietic tissues Male ICR mice weighing 25 gm each were subjected to chemoablation using cyclophosphamide (CFA), 5 mg/mouse, injected intraperitoneally on days 0 and 1, one injection each day. OGP(10-14) was dissolved in “sterile water for injection” and 0.1 ml of the indicated doses or water only (vehicle) was administered subcutaneously in the nape daily from day −7 to day −1 and from day +2 to day +8. Data are mean±SD obtained in 20 animals per condition. *: significant over CFA+vehicle, p<0.05; **: significant over 1 nmol OGP(10-14) group, p<0.05.
In this set of experiments bone marrow ablation was induced by an intraperitoneal injection of cyclophophamide (CFA, SIGMA, 5 mg/mouse in 150 (1 sterile PBS) for two consecutive days (designated “day 0” and “day 1”. This protocol has been demonstarted to induce severe, reversible leucopoena with L. D. <30 [Spangrude, G. J. et al, Science, 241:58 (1988)]. The lowest bone marrow cell counts were recorded six days after the first injection. […]

In data set [3] the test system is CFU-GM, CFU-GEMM and BFU-E. Nature of the data set: Ex vivo progenitor cell (colony forming) assays on bone marrow of treated chemoablated mice. The data set is classed as in vivo. The following applies: bone marrow of CFA-ablated mice, 10 nmol/day s.c. How it is done:
Male ICR mice weighing 25 gm each were subjected to chemoablation using cyclophosphamide (CFA), 5 mg/mouse, injected intraperitoneally on days 0 and 1, one injection each day. OGP(10-14) was dissolved in “sterile water for injection” at 100 nmol/ml concentration and 0.1 ml of this solution or water only (vehicle) was administered subcutaneously in the nape daily for the indicated period(s). Bone marrow was harvested on day 9 and analyzed for colony forming units. Data are meam±SD obtained in 10 animals per condition.
To evaluate different dosing regimens of OGP(10-14), chemoablated mice were subjected to daily treatment with OGP(10-14), as outlined in FIG. 4. The mice were sacrificed on day +15, the femoral bone marrow was flushed and single cell suspensions (prepared as above) were subjected to ex vivo progenitor cell (colony forming) assays. The OGP(10-14) effect on the formation of CFU-GM, CFU-GEMM and BFU-E was compared to that of G-CSF (FIG. 4).
Bone marrow cells were recovered on day +10 after injection of CFA from all groups. Cells were diluted to 2×10^6/ml in Iscove's Modified Dulbecco Medium(IMFM) with 2% FBS and added to methylcellulose medium according to the manufacturer's recommendations (MethoCult, StemCell Technologies Inc., Vancouver, Canada). 2×10^4 cells were plated in each test. Both M3434 (for murine GM-CFU, and GEMM-CFU) and M3334 for (murine BFU-E assay) were used. M3434 was supplemented with recombinant murine interleukine-3 (rmIL-3, 10 ng/ml), recombinant human interleukine-6 (rhIL-6, 10 ng/ml), recombinant murine stem cell factor (rmSCF, 50 ng/ml) and recombinant human erythropoietin (rhEpo, 3 U/ml). […] the only factor included was Epo. Duplicate tests for each mouse were blindly examined after 14 days of incubation according to the protocol procedures.

The mark [4] stands for this setting: OGP(10-14) effect only where treatment began 7 days before chemoablation.

Ends that are not written are not given here.

For YGFGG [OGP(10-14), Tyr-Gly-Phe-Gly-Gly], in data set [1], the “haematological parameters: number of WBC, RBC, PLT, Hb level” value is listed as “did not induce any significant modifications”; the “survival, behaviour, body weight gain and gross examination” value is given as “No differences were found”. Besides, the “toxicity at the employed doses” value in data set [2] is “without any valuable toxicity”.

B1: G-CSF: granulocyte colony-stimulating factor, positive reference (protein, UniProt P09919 31-207, looked up)
Granulocyte …: TPLGPASSLPQSFLLKCLEQVRKIQGDGAALQEKLVSECATYKLCHPEELVLLGHSLGIPWAPLSSCPSQALQLAGCLSQLHSGLFLYQGLLQALEGISPELGPTLDTLQLDVADFATTIWQQMEELGMAPALQPTQGAMPAFASAFQRRAGGVLVASHLQSFLEVSYRVLRHLAQP
With B1, the CFU-GM entry in data set [3] is reported as “had an effect”. In data set [3] (setting [4]), the BFU-E result is listed as “effect only on the CFU-GM” and the CFU-GEMM result is given as “effect only on the CFU-GM”.
